Reference: article PMC4965013, “Open Source Drug Discovery with the Malaria Box Compound Collection for Neglected Diseases and Beyond” (PLoS Pathogens, 2016)
Values joined by “and” are separate entries in the source; they are usually repeats but may differ in a detail not shown here. Equal entries are not always repeated. Where two headings read alike, the source gives them in different places.

Columns and labels:
PfPMT = PfPMT (Plasmodium falciparum, UniProt Q8IDQ9); test: PfPMT gene replacement yeast growth; conditions: 100µM
Sequence of PfPMT (Q8IDQ9 whole entry): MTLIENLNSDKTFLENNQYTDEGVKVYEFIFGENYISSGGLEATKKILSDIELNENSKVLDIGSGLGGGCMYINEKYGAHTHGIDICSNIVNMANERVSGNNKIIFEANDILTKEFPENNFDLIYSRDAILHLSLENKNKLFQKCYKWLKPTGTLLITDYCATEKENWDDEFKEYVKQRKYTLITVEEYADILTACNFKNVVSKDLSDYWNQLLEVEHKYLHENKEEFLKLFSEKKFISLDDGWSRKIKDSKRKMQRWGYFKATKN

[1] = tested on: NCI60 human tumor cell lines; test: NCI60 5-dose (dose-response) assay; format: cell-based; conditions: for MGLI50 = Mean Growth Log I50: 5-dose, mean over NCI60 panel; for _MID Log10GI50 / _MID Log10LC50 / _MID Log10TGI: mean over cell lines of one experiment
Source text: Columns IE-KK. NCI: Misra group (data presented first in this paper). NCI60 anti-tumor cell activity. Methods: […] These 60 cell lines, along with others, have been developed at NCI and have been maintained and distributed for research purposes by NCI for over 25 years. The experimental readout provides both inhibition of cell growth and cell kill. The screen was originally designed to prioritize agents for further evaluation. […] This is the same as for the 5-dose assay, described on http://dtp.cancer.gov/branches/btb/ivclsp.html. […] Testing beyond the initial screen: There were 133 compounds that passed threshold to proceed to 5-dose (dose-response) (data are available for the 133 compounds at the DTP public website (dtp.cancer.gov) by searching either the MMV number or NSC number). After examination of the 5-dose data, 10 compounds were selected for repeat testing based generally on potency, differential cell activity or activity on an individual cell lines or cell line panel. A summary of the data for the 10 compounds of interest is in the table below.

P. falciparum 3D7 = test: [3H]-hypoxanthine growth inhibition, modified HCO3- or O2; format: cell-based; conditions: for IC50: Plasmodium falciparum
[2] = tested on: P. falciparum 3D7 trophozoites; test: Metabolomic fingerprint profiling LC-MS; format: cell-based, Plasmodium falciparum
P. falciparum = test: EC50 listed in S2 Table Metabolomics (used to set the concentration tested); format: cell-based; conditions: Plasmodium falciparum, read-out: EC50_nM
[3] = metabolite level change after treatment

## COc1cc(C(=O)ON=C(N)Cc2cccc3ccccc23)cc(OC)c1OC [MMV666687]
PfPMT
  candidate inhibitors of PfPMT activity (yeast functional assay): candidate inhibitors of PfPMT activity

## CN1c2ccccc2N(C)C1c1ccc2c(c1)OCO2 [MMV666009]
PfPMT
  candidate inhibitors of PfPMT activity (yeast functional assay): candidate inhibitors of PfPMT activity

## Oc1c(CN2CCN(c3ccccc3F)CC2)cc(Br)c2cccnc12 [MMV000760]
[1]
  Notes (NCI60 5-dose activity pattern): Differential
  MGLI50 = Mean Growth Log I50: -6.02
[1]; listed as 766634/2
  _MID Log10GI50: -6.03 Molar and -6.0 Molar
  _MID Log10LC50: -4.04 Molar and -4.06 Molar
  _MID Log10TGI: -4.67 Molar and -4.74 Molar

## Cc1ccc2c(C)nc(Nc3nc(C)cc(-c4ccccc4)n3)nc2c1 [MMV007041]
PfPMT
  candidate inhibitors of PfPMT activity (yeast functional assay): candidate inhibitors of PfPMT activity

## CCCCCCc1cc2cc(-c3nc4ccccc4[nH]3)c(=Nc3ccccc3C)oc2cc1O [MMV666597]
[1]
  Notes (NCI60 5-dose activity pattern): Differential
  MGLI50 = Mean Growth Log I50: -5.57

## N=c1n(CCN2CCCCC2)c2ccccc2n1CC(=O)c1ccc(Cl)c(Cl)c1 [MMV396723]
PfPMT
  candidate inhibitors of PfPMT activity (yeast functional assay): candidate inhibitors of PfPMT activity

## COc1ccc(C2c3ccc4ccccc4c3Oc3ncn(CCCN(C)C)c(=N)c32)cc1 (stereo not shown) [MMV667491]
PfPMT
  candidate inhibitors of PfPMT activity (yeast functional assay): candidate inhibitors of PfPMT activity

## O=C(Nc1ccc(-c2nc3cc(NC(=O)c4ccc(Cl)cc4)ccc3[nH]2)cc1)c1ccc(Cl)cc1 [MMV006962]
[1]
  Notes (NCI60 5-dose activity pattern): Differential, CNS
  MGLI50 = Mean Growth Log I50: -5.61

## CCOc1cc(Br)c(C(C)NC(=O)c2cccc(OC)c2)cc1OCC (stereo not shown) [MMV665796]
[1]
  MGLI50 = Mean Growth Log I50: -5
  _MID Log10LC50: -4.0 Molar
[1]; listed as 766556/2
  _MID Log10GI50: -5.02 Molar and -4.97 Molar
  _MID Log10TGI: -4.07 Molar and -4.08 Molar

## CCOC(=O)c1cnc2ccc(OC)cc2c1Nc1ccc(N2CCN(C)CC2)cc1 [MMV000704]
PfPMT
  candidate inhibitors of PfPMT activity (yeast functional assay): candidate inhibitors of PfPMT activity

## COc1cccc(C(=O)NC(c2ccc(C)cc2)c2cc(Cl)c3cccnc3c2O)c1 (stereo not shown) [MMV665969]
[1]
  MGLI50 = Mean Growth Log I50: -6.29
  _MID Log10GI50: -6.3 Molar
  _MID Log10LC50: -4.16 Molar
  _MID Log10TGI: -4.91 Molar

## OC(CNCC1CCCO1)Cn1c2ccc(Cl)cc2c2cc(Cl)ccc21 (stereo not shown) [MMV396736]
PfPMT
  candidate inhibitors of PfPMT activity (yeast functional assay): candidate inhibitors of PfPMT activity

## O=C(NC1CCN(Cc2ccccc2)CC1)c1cc(-c2ccncc2)nc2ccc(Cl)cc12 [MMV020275]
[1]
  MGLI50 = Mean Growth Log I50: -4.93
[1]; listed as 766585/2
  _MID Log10GI50: -4.95 Molar and -4.91 Molar
  _MID Log10LC50: -4.05 Molar and -4.01 Molar
  _MID Log10TGI: -4.34 Molar and -4.19 Molar

## CCCCCCn1c(=N)n(CC(O)COc2cccc(C)c2)c2ccccc21 (stereo not shown) [MMV000445]
PfPMT
  candidate inhibitors of PfPMT activity (yeast functional assay): candidate inhibitors of PfPMT activity

## Cc1ccc(OCCCCCCNCCO)c(C)c1 [MMV666020]
[1]
  MGLI50 = Mean Growth Log I50: -4.9
[1]; listed as 766672/2
  _MID Log10GI50: -4.93 Molar and -4.86 Molar
  _MID Log10LC50: -4.21 Molar and -4.19 Molar
  _MID Log10TGI: -4.56 Molar and -4.52 Molar

## CCC1(C)CC(CCNCc2ccccc2O)(c2ccc(C)cc2)CCO1 (stereo not shown) [MMV019406]
P. falciparum 3D7
  fold change (IC50normal/ IC50hypoxia): 2.3
P. falciparum 3D7; 3D7, read-out: P. falciparum 3D7 IC50 1% O2
  IC50: 236 nM
P. falciparum 3D7; 3D7, read-out: P. falciparum 3D7 IC50 5% O2
  IC50: 540 nM
[2]; S2 Table Metabolomics, metabolite Acetyllysine
  Acetyllysine: -2.519
[2]; S2 Table Metabolomics, metabolite N-acetyl-L-ornithine
  N-acetyl-L-ornithine: -1.511
[2]; S2 Table Metabolomics, metabolite N-carbamoyl-L-aspartate
  N-carbamoyl-L-aspartate: -2.298
[2]; S2 Table Metabolomics, metabolite NADPH
  NADPH: 0.4736
[2]; S2 Table Metabolomics, metabolite dAMP
  dAMP: 0.284
[2]; S2 Table Metabolomics, metabolite dCMP
  dCMP: -0.09039
[2]; S2 Table Metabolomics, metabolite dTDP
  dTDP: 0.1057
[2]; S2 Table Metabolomics, metabolite dTMP
  dTMP: 0.004037
[2]; S2 Table Metabolomics, metabolite dTTP
  dTTP: -0.4082
[2]; S2 Table Metabolomics, metabolite dihydroorotate
  dihydroorotate: -2.242
[2]; S2 Table Metabolomics, metabolite orotate
  orotate: -1.534
[2]; S2 Table Metabolomics, peptide DLH
  DLH: -2.275
[2]; S2 Table Metabolomics, peptide DLS/SDL/SID
  DLS/SDL/SID: -1.841
[2]; S2 Table Metabolomics, peptide PD
  PD: -2.354
[2]; S2 Table Metabolomics, peptide PEE
  PEE: -2.262
[2]; S2 Table Metabolomics, peptide PVNF
  PVNF: -2.251
[2]; metabolite 3-phosphoglycerate, S2 Table Metabolomics
  3-phosphoglycerate: -0.1564
[2]; metabolite ADP-D-glucose, S2 Table Metabolomics
  ADP-D-glucose: -0.3945
[2]; metabolite ATP, S2 Table Metabolomics
  ATP: -0.512
[2]; metabolite CDP, S2 Table Metabolomics, change in metabolite level after compound treatment
  CDP: 0.05599
[2]; metabolite D-sedoheptulose-1/7-phosphate, S2 Table Metabolomics, change in metabolite level after compound treatment
  D-sedoheptulose-1/7-phosphate: -0.4162
[2]; metabolite FAD, S2 Table Metabolomics
  FAD: -0.02006
[2]; metabolite GMP, S2 Table Metabolomics, change in metabolite level after compound treatment
  GMP: -0.3975
[2]; metabolite NAD+, S2 Table Metabolomics
  NAD+: 0.008417
[2]; metabolite NADP+, S2 Table Metabolomics
  NADP+: -0.1427
[2]; metabolite Octoluse Bisphosphate, S2 Table Metabolomics, change in metabolite level after compound treatment
  Octoluse Bisphosphate: -0.6015
[2]; metabolite Pyroglutamic acid, S2 Table Metabolomics
  Pyroglutamic acid: 0.2098
[2]; metabolite UDP-D-glucose, S2 Table Metabolomics
  UDP-D-glucose: -0.0942
[2]; metabolite UDP-D-glucuronate, S2 Table Metabolomics
  UDP-D-glucuronate: -0.3214
[2]; metabolite UDP-N-acetyl-glucosamine, S2 Table Metabolomics
  UDP-N-acetyl-glucosamine: -0.03854
[2]; metabolite UDP, S2 Table Metabolomics, change in metabolite level after compound treatment
  UDP: -0.04555
[2]; metabolite UMP, S2 Table Metabolomics, change in metabolite level after compound treatment
  UMP: -0.1795
[2]; metabolite UTP, S2 Table Metabolomics, change in metabolite level after compound treatment
  UTP: -0.2654
[2]; metabolite a-ketoglutarate, S2 Table Metabolomics
  a-ketoglutarate: -0.6947
[2]; metabolite citrate/isocitrate, S2 Table Metabolomics, change in metabolite level after compound treatment
  citrate/isocitrate: 0.006162
[2]; metabolite cytidine, S2 Table Metabolomics
  cytidine: 0.3562
[2]; metabolite dATP, S2 Table Metabolomics
  dATP: 0.258
[2]; metabolite dGMP/AMP, S2 Table Metabolomics, change in metabolite level after compound treatment
  dGMP/AMP: 0.2244
[2]; metabolite fumarate, S2 Table Metabolomics, change in metabolite level after compound treatment
  fumarate: -1.313
[2]; metabolite glucose-1/6-phosphate, S2 Table Metabolomics, change in metabolite level after compound treatment
  glucose-1/6-phosphate: -0.1461
[2]; metabolite glycerate, S2 Table Metabolomics, change in metabolite level after compound treatment
  glycerate: -0.1204
[2]; metabolite guanine, S2 Table Metabolomics, change in metabolite level after compound treatment
  guanine: -0.06557
[2]; metabolite guanosine, S2 Table Metabolomics, change in metabolite level after compound treatment
  guanosine: -0.1693
[2]; metabolite hypoxanthine, S2 Table Metabolomics
  hypoxanthine: 0.07201
[2]; metabolite indole, S2 Table Metabolomics
  indole: -0.04528
[2]; metabolite inosine, S2 Table Metabolomics, change in metabolite level after compound treatment
  inosine: -0.2118
[2]; [3]
  2_3-Diphosphoglyceric acid: -0.5043
  4-phosphopantothenate: -0.1061
  6-phospho-D-gluconate: -0.2502
  FMN: -0.1097
  IMP: -0.4258
  Pyrophosphate: -0.3998
  Sedoheptoluse bisphosphate: -0.4722
  cyclic-AMP: -0.5498
  glutathione disulfide: -0.423
  lactate: -0.2201
  myo-inositol: -0.4627
[2]; metabolite nicotinate, S2 Table Metabolomics
  nicotinate: 0.2145
[2]; metabolite ornithine, S2 Table Metabolomics
  ornithine: -0.4607
[2]; metabolite phosphoenolpyruvate, S2 Table Metabolomics
  phosphoenolpyruvate: -0.0532
[2]; metabolite pyruvate, S2 Table Metabolomics, change in metabolite level after compound treatment
  pyruvate: 0.03561
[2]; metabolite ribose-phosphate, S2 Table Metabolomics
  ribose-phosphate: -0.5159
[2]; metabolite sarcosine/alanine, S2 Table Metabolomics, change in metabolite level after compound treatment
  sarcosine/alanine: -1.233
[2]; metabolite sn-glycerol-3-phosphate, S2 Table Metabolomics
  sn-glycerol-3-phosphate: -0.3535
[2]; metabolite succinate/methylmalonic acid, S2 Table Metabolomics, change in metabolite level after compound treatment
  succinate/methylmalonic acid: -0.02906
[2]; metabolite uridine, S2 Table Metabolomics, change in metabolite level after compound treatment
  uridine: -0.4944
[2]; metabolite xanthosine, S2 Table Metabolomics, change in metabolite level after compound treatment
  xanthosine: -0.9536
P. falciparum
  EC50: 142 nM

## CCOc1cc(Cl)c(C(C)NC(=O)c2cccc(OC)c2)cc1OCC (stereo not shown) [MMV665803]
[1]
  MGLI50 = Mean Growth Log I50: -5.01
  _MID Log10LC50: -4.0 Molar
[1]; listed as 766546/2
  _MID Log10GI50: -5.1 Molar and -4.93 Molar
  _MID Log10TGI: -4.1 Molar and -4.05 Molar

## CCOc1ccc(Nc2c3ccccc3nc3ccccc23)cc1 [MMV000304]
PfPMT
  candidate inhibitors of PfPMT activity (yeast functional assay): candidate inhibitors of PfPMT activity
